From publication PMC9395488, “First-in-human study of IM156, a novel potent biguanide oxidative phosphorylation (OXPHOS) inhibitor, in patients with advanced solid tumors” (Investigational New Drugs, 2022)

Test system: patients with advanced solid tumors
Assay: First-in-human phase 1 dose-escalation study: safety, DLTs, adverse events
Format: in vivo
Text: This multicenter first-in-human dose-escalation phase 1 study (clinicaltrials.gov identifier: NCT03272256) was designed to determine the MTD or RP2D and to evaluate the safety and tolerability of IM156. Secondary endpoints included PK characteristics, efficacy assessment (objective response rate [ORR], disease control rate [DCR], duration of response [DoR] and progression-free survival [PFS]). Furthermore, exploratory objectives included identification and profiling of IM156 metabolites, evaluations of exploratory PD markers of IM156, and evaluations of any potential relationship between putative biomarkers and safety/efficacy parameters of IM156. The study was conducted in accordance with Good Clinical Practice, the International Council for Harmonisation, and guidelines governing clinical study conduct and the ethical principles originating from the Declaration of Helsinki. The study was approved by each Institutional Review Board and patients provided written informed consent. Patients were enrolled at three sites in South Korea.
The initial dose and schedule of IM156 was chosen based on animal toxicology studies. […] IM156 was administered in the fasted state, with no food for at least 2 h before and 1 h after dosing.
Three DLT-evaluable patients were enrolled at each dose level. If there were no DLTs or other prohibitive adverse events (AEs), the Safety Committee was allowed to recommend escalation to the next highest dose level. If 1 DLT occurred in the first 3 DLT-evaluable patients, enrollment in that cohort was expanded to an additional 3 DLT-evaluable patients; if ≥ 2 DLTs were reported in a cohort, that dose was considered above the MTD.
Safety was assessed through vital signs, weight, laboratory assessments, physical examinations, electrocardiogram, and reporting of AEs as graded by the National Cancer Institute’s Common Terminology Criteria for Adverse Events v4.03 (NCI-CTCAE).
DLTs were defined as the following AEs if they were attributed as related to IM156: asymptomatic grade 4 neutropenia lasting for ≥ 5 days; febrile neutropenia, regardless of grade; grade 4 thrombocytopenia or grade 3 thrombocytopenia with bleeding; any grade ≥ 3 non-hematologic AE (except grade 3 hypertension and grade 3 nausea, vomiting or diarrhea for which proper measures for prevention and treatment were not implemented, and alopecia); blood lactate levels > 5 mmol; grade ≥ 2 AE prohibiting dosing of IM156 for ≥ 21 continuous days except for alterations in serum calcium or phosphorus levels. The safety analysis includes all patients who received at least one dose of study drug.
The safety population was defined as all patients who received at least one dose of IM156. The PK population was not defined in the protocol but included all patients with sufficient PK data to perform adequate PK modeling. The efficacy population included all patients who underwent at least one tumor imaging assessment while receiving IM156. Safety was assessed using descriptive statistics (e.g., DLTs, AEs, laboratory tests, physical examination, 12-lead ECG). The incidence and number of events were reported for the DLTs observed in Cycle 1 per dose group. […] Adverse events and TRAEs were standardized with the System Organ Class and the Preferred Term using the Medical Dictionary for Regulatory Activities v23.0. In addition, TEAEs, serious adverse events (SAEs), TEAE severity, and TEAEs leading to withdrawal were presented by dose group. Efficacy data were to be presented by Waterfall and Swim Lane plots. Time to event endpoints (e.g., DoR, PFS) were determined using Kaplan–Meier estimations with the median value for each endpoint summarized.

[1] = DL5 1200 mg orally every other day (n=3)

## NC(=Nc1ccc(OC(F)(F)F)cc1)N=C(N)N1CCCC1 [IM156]
[1]
  TEAE Dry skin grade 1: 0
  TEAE Dry skin grade 2: 0
  TEAE Dry skin grade 3: 0
  TEAE Dry skin grade 4: 0
  TEAE Flank pain grade 1: 0
  TEAE Flank pain grade 2: 0
  TEAE Flank pain grade 3: 0
  TEAE Flank pain grade 4: 0
  TEAE Hypertension grade 1: 0
  TEAE Hypertension grade 2: 0
  TEAE Hypertension grade 3: 0
  TEAE Hypertension grade 4: 0
  TEAE Hypotension grade 1: 0
  TEAE Hypotension grade 2: 1
  TEAE Hypotension grade 3: 0
  TEAE Hypotension grade 4: 0
  TEAE Insomnia grade 1: 0
  TEAE Insomnia grade 2: 0
  TEAE Insomnia grade 3: 0
  TEAE Insomnia grade 4: 0
  TEAE Pain in extremity grade 1: 0
  TEAE Pain in extremity grade 2: 0
  TEAE Pain in extremity grade 3: 0
  TEAE Pain in extremity grade 4: 0
  TEAE Pruritus grade 1: 0
  TEAE Pruritus grade 2: 0
  TEAE Pruritus grade 3: 0
  TEAE Pruritus grade 4: 0
  TEAE Psychiatric disorders grade 1: 0
  TEAE Psychiatric disorders grade 2: 0
  TEAE Psychiatric disorders grade 3: 0
  TEAE Psychiatric disorders grade 4: 0
  TEAE Purpura grade 1: 0
  TEAE Purpura grade 2: 0
  TEAE Purpura grade 3: 0
  TEAE Purpura grade 4: 0
  TEAE Urinary retention grade 1: 0
  TEAE Urinary retention grade 2: 0
  TEAE Urinary retention grade 3: 0
  TEAE Urinary retention grade 4: 0
  TEAE Urinary tract disorder grade 1: 0
  TEAE Urinary tract disorder grade 2: 0
  TEAE Urinary tract disorder grade 3: 0
  TEAE Urinary tract disorder grade 4: 0
DL6 800 mg QD (n=3)
  TEAE Abdominal discomfort, grade 1: 1
  TEAE Alanine aminotransferase increased, grade 1: 1
  TEAE Aspartate aminotransferase increased, grade 1: 1
  TEAE Blood lactic acid increased, grade 1: 1
  TEAE Constipation, grade 1: 2
  TEAE Decreased appetite, grade 1: 1
  TEAE Diarrhoea, grade 1: 3
  TEAE Fatigue, grade 1: 1
  TEAE Gastrointestinal pain, grade 1: 1
  TEAE Nausea, grade 1: 2
  TEAE Toothache, grade 1: 1
  TEAE Vomiting, grade 1: 1
DL6 800 mg QD, N = 3
  TRAE Abdominal Pain, > G3 (patients): 0
  TRAE Abdominal Pain, All grades (patients): 0
  TRAE Blood Lactic Acid increased, > G3 (patients): 0
  TRAE Blood Lactic Acid increased, All grades (patients): 1
  TRAE Constipation, > G3 (patients): 0
  TRAE Constipation, All grades (patients): 1
  TRAE Decreased appetite, > G3 (patients): 0
  TRAE Decreased appetite, All grades (patients): 0
  TRAE Diarrhoea, > G3 (patients): 0
  TRAE Diarrhoea, All grades (patients): 3
  TRAE Fatigue, > G3 (patients): 0
  TRAE Fatigue, All grades (patients): 0
  TRAE Insomnia, > G3 (patients): 0
  TRAE Insomnia, All grades (patients): 0
  TRAE Nausea, > G3 (patients): 0
  TRAE Nausea, All grades (patients): 2
  TRAE Vomiting, > G3 (patients): 0
  TRAE Vomiting, All grades (patients): 1
DL6 800 mg orally daily (n=3)
  TEAE Adrenal insufficiency grade 1: 0
  TEAE Adrenal insufficiency grade 2: 0
  TEAE Adrenal insufficiency grade 3: 0
  TEAE Adrenal insufficiency grade 4: 0
  TEAE Anaemia grade 1: 0
  TEAE Anaemia grade 2: 0
  TEAE Anaemia grade 3: 0
  TEAE Anaemia grade 4: 0
  TEAE Appendicitis perforated grade 1: 0
  TEAE Appendicitis perforated grade 2: 0
  TEAE Appendicitis perforated grade 3: 0
  TEAE Appendicitis perforated grade 4: 0
  TEAE Back pain grade 1: 0
  TEAE Back pain grade 2: 0
  TEAE Back pain grade 3: 0
  TEAE Back pain grade 4: 0
  TEAE Cystitis grade 1: 0
  TEAE Cystitis grade 2: 0
  TEAE Cystitis grade 3: 0
  TEAE Cystitis grade 4: 0
  TEAE Dry skin grade 1: 0
  TEAE Dry skin grade 2: 0
  TEAE Dry skin grade 3: 0
  TEAE Dry skin grade 4: 0
  TEAE Flank pain grade 1: 0
  TEAE Flank pain grade 2: 0
  TEAE Flank pain grade 3: 0
  TEAE Flank pain grade 4: 0
  TEAE Hypertension grade 1: 0
  TEAE Hypertension grade 2: 0
  TEAE Hypertension grade 3: 0
  TEAE Hypertension grade 4: 0
  TEAE Hypotension grade 1: 0
  TEAE Hypotension grade 2: 0
  TEAE Hypotension grade 3: 0
  TEAE Hypotension grade 4: 0
  TEAE Insomnia grade 1: 1
  TEAE Insomnia grade 2: 0
  TEAE Insomnia grade 3: 0
  TEAE Insomnia grade 4: 0
  TEAE Pain in extremity grade 1: 0
  TEAE Pain in extremity grade 2: 0
  TEAE Pain in extremity grade 3: 0
